{"source": "patent US9180107B2", "about": "(NANOPHARMACEUTICALS LLC, priority 2009, dated 2015)", "key": {"[1]": {"system": "Human adenoid cystic carcinoma TGS112T cells", "assay": "[3H]-thymidine incorporation", "type": "cell-based", "conditions": "10^−7 M, 24 h", "method": "TGS112T cells were seeded in 24-well trays and exposed to 10% hormone-depleted FBS-supplemented medium for 2 d, then treated with 0.25% hormone-depleted FBS-supplemented medium prior to starting the experiments. Aliquots of cells were treated with T4, tetrac or nano-tetrac as indicated, as well as 1 μCi [^3H]-thymidine (final concentration, 13 nM) for 24 h. Cells were then washed twice with cold PBS. TCA (5%, 1 mL) was added and the plate was held at 4° C. for 30 min. The precipitate was washed twice with cold ethanol; 2% SDS (1 mL) was added to each well and the TCA-precipitable radioactivity was quantitated in a liquid scintillation counter.\n(§1) Human adenoid cystic carcinoma TGS112T cells were cultured in medium that contained 0.25% hormone-stripped serum for 2 d and then treated with 10^−7 M tetrac or nano-tetrac for 30 min prior institution of 10^−7 M T4 treatment for 24 h. Nuclear proteins were separated by SDS-PAGE followed by western blot analysis with proliferating-cell nuclear antigen (PCNA) antibody. Thyroid hormone-induced PCNA accumulation was inhibited by tetrac. (See FIG. 6A). […] (See FIG. 6A). Inhibition of thyroid hormone-induced proliferation was confirmed by inhibition by tetrac and nano-tetrac of thyroid hormone-induced accumulation and [^3H]-thymidine incorporation. (See FIG. 6B). […] (See FIG. 6B). […] The effect of nano-tetrac and tetrac on cell proliferation was examined by counting TGS112T cells which were treated daily with 10^−6 M tetrac or 10^−6 M nano-tetrac. […] (See FIG. 6C)."}, "[2]": {"system": "Human adenoid cystic carcinoma TGS112T cells", "assay": "PCNA western blot (thyroid hormone-induced proliferation)", "type": "cell-based", "conditions": "10^−7 M, 24 h", "description": "The techniques have been described in a number of publications. (See Davis et al., 2006. Cancer Res. 66:7270-7275; Lin et al., 2007. Steroids. 72:180-187; Lin et al., 2008. Carcinogenesis. 29:62-69; and Davis et al., 2004. Circ Res. 94:1500-1506, each of which is herein incorporated by reference in its entirety). Nucleoproteins were separated on discontinuous SDS-PAGE (9% gels) and the proteins transferred by electroblotting to nitrocellulose membranes (Millipore, Bedford, Mass.). After blocking with 5% milk in Tris-buffered saline containing 0.1% Tween, the membranes were incubated with selected primary antibodies overnight. The secondary antibodies were either goat anti-rabbit IgG (1:1000, Dako, Carpenteria, Calif.) or rabbit anti-mouse IgG (1:1000, Dako), depending upon the origin of the primary antibody. Immunoreactive proteins were then detected by chemiluminescence.\nas §1"}}}
{"compound": "N[C@@H](Cc1cc(I)c(Oc2cc(I)c(O)c(I)c2)c(I)c1)C(=O)O", "note": "[T4, L-thyroxine, reference compound]", "values": [{"measurement": "effect of agent alone on thymidine incorporation", "setting": "[1]", "value": "increased thymidine incorporation"}, {"measurement": "Proliferation of TGS112T cells (agent alone)", "setting": "[2]", "value": "stimulated"}]}
